Where two headings read alike, the source gives them in different places.
Key:
[1] = tested on: IGROV-1 ovarian tumor xenografts; assay: Antitumor activity of IMGN853, bevacizumab and combination in IGROV-1 tumor model (Example 5); type: in vivo, SCID mice; conditions: IMGN853 5 mg/kg 1× and/or bevacizumab 5 mg/kg 1×
Text: All treatments consisted of single doses (1×).
FIG. 4 depicts the results.

[2] = tested on: OV90 serous ovarian tumor xenografts; conditions: IMGN853 5 mg/kg 1× and/or bevacizumab 5 mg/kg 1×
Protocol: Mice were randomized into groups (n=6 per group) by tumor volume and subsequently dosed on Day 14 post-inoculation.
Tumor volumes were measured one to two times weekly in three dimensions using a caliper. The tumor volume was expressed in mm^3 using the formula V=Length×Width×Height×½ (Tomayko and Reynolds, Cancer Chemother. Pharmacol. 24:148-54 (1989)) Body weights were measured twice per week as an index of toxicity. Activity was assessed as described in Bissery et al. (1991).

[3] = tested on: ST088 human epithelial ovarian cancer (EOC) patient-derived tumor xenografts; assay: Antitumor activity of IMGN853, bevacizumab, paclitaxel and combinations in ST088 tumor model (Example 6); type: in vivo, SCID mice; conditions: QWx2: IMGN853 5 mg/kg, bevacizumab 5 mg/kg, paclitaxel 10 mg/kg
Protocol: Tumor volumes were measured twice weekly in three dimensions using a caliper.

OV-90 xenografts = assay: OV-90 tumors harvested 4 days post-dosing: histology, γH2AX, CD31, anti-maytansine (FIGS. 12A-12C); type: in vivo, mice; conditions: IMGN853 2.5 mg/kg and/or bevacizumab 5 mg/kg
Protocol: Original magnification, 4×; scale bars, 2 mm (for Combination panel, 600 μm).
For each group, representative micrographs from one of three tumors are shown. Original magnification, 20×; scale bars, 200 μm.
Next, as a pharmacodynamic readout, tumor γH2AX levels were measured by immunoblotting (FIG. 12B).
While genotoxic insults are the primary inducers of γH2AX, accumulation of this protein can also occur in response to hypoxia. […] In order to examine treatment-related effects on microvessels, immunohistochemical staining with the endothelial cell marker CD31 was performed (FIG. 12C, upper panel).

[4] = tested on: platinum-sensitive ovarian cancer patient derived xenografts (PDXs); assay: IMGN853 and carboplatin, single administration, in platinum-sensitive ovarian cancer PDX (FIG. 9D); type: in vivo, SCID mice
Protocol: Data are expressed as mean and standard error of the mean (SEM) for each time point.
To examine whether these in vitro cellular effects translated to improved efficacy in vivo, mice bearing patient-derived xenografts (PDX) obtained from an individual with EOC were treated with IMGN853 and carboplatin, both as single agents and in combination (FIG. 9D). […] Animals received a single administration of IMGN853 (2.5 mg/kg) or carboplatin (80 mg/kg), and each regimen inhibited tumor growth as monotherapy (T/C values of 43% and 20% on day 39, respectively).

[5] = tested on: OV90 serous ovarian tumor xenografts; assay: Antitumor activity of IMGN853, cediranib and combination in OV90 tumor model (Example 9); type: in vivo, SCID mice; conditions: IMGN853 2.5 mg/kg 1× and/or cediranib 1.5 mg/kg qd×5
Text: The term “respond favorably” generally refers to causing a beneficial state in a subject. With respect to cancer treatment, the term refers to providing a therapeutic effect on the subject. Positive therapeutic effects in cancer can be measured in a number of ways (See, W. A. Weber, J. Nucl. Med. 50:1S-10S (2009)). For example, tumor growth inhibition, molecular marker expression, serum marker expression, and molecular imaging techniques can all be used to assess therapeutic efficacy of an anti-cancer therapeutic. Log10 Cell Kill (LCK) can be used to quantify the tumor cell kill. Log10 cell kill (LCK) is calculated with the formula LCK=(T−C)/Td×3.32, where (T−C) (or tumor growth delay (TGD)) is the median time (in days) for the treatment group and control group tumors to reach a predetermined size (tumor-free survivors excluded). Td is the tumor doubling time (estimated from nonlinear exponential curve fit of daily median of control tumor growth), and 3.32 is the number of cell doublings per log of cell growth. The ability to reduce tumor volume may be assessed, for example, by measuring a % T/C value, which is the median tumor volume of treated subjects divided by the median tumor volume of the control subjects. With respect to tumor growth inhibition, according to NCI standards, a T/C≤42% is the minimum level of anti-tumor activity. A T/C<10% is considered a high anti-tumor activity level, with T/C (%)=Median tumor volume of the treated/Median tumor volume of the control×100. A favorable response can be assessed, for example, by increased progression-free survival (PFS), disease-free survival (DFS), or overall survival (OS), complete response (CR), partial response (PR), or, in some cases, stable disease (SD), a decrease in progressive disease (PD), a […] time to progression (TTP), a decrease in CA125 in the case of ovarian cancer, or any combination thereof.

[6] = tested on: OV90 serous ovarian tumor xenografts; assay: Antitumor activity of IMGN853 (2.5 mg/kg), bevacizumab and combination in OV90 tumor model (Example 3); type: in vivo, SCID mice; conditions: IMGN853 2.5 mg/kg 1× and/or bevacizumab 5 mg/kg 1×
Text: FIG. 2B depicts the results.

[7] = tested on: platinum-resistant ovarian cancer PDXs; assay: IMGN853 with bevacizumab in platinum-resistant ovarian cancer PDX, 102-day study (FIG. 11B); type: in vivo, mice; conditions: IMGN853 5 mg/kg QWx2, bevacizumab 5 mg/kg QWx2, alone or combined
Text: Tumor growth was monitored out to 102 days. * P=0.011; ** P=0.018; ns, not significant (Wilcoxon test, non-adjusted).

[8] = tested on: H2110 non-small cell lung cancer (NSCLC) tumor xenografts; conditions: for CR / PR: responders/animals
Protocol: Mice were randomized into groups (n=6-10 per group) by tumor volume and subsequently dosed on Day 7 post-inoculation. All treatments consisted of single doses (1×).
Tumor volumes were measured one to two times weekly in three dimensions using a caliper. The tumor volume was expressed in mm^3 using the formula V=Length×Width×Height×½ (Tomayko 1989). Body weights were measured twice per week as an index of test agent toxicity. Activity was assessed as described in Bissery et al. (1991).

γH2AX = γH2AX immunoblot of cellular extracts, IMGN853 and carboplatin (FIG. 9C); type: cell-based; conditions: carboplatin 40 μM, IMGN853 16 nM, alone or combined, 6 hours, then 18 hours drug-free medium
Text: Cellular extracts were immunoblotted for γH2AX or actin (loading control) as indicated.

[9] = IMGN853 1.5 mg/kg 1×, alone or with bevacizumab 5 mg/kg 1×
[10] = IMGN853 3 mg/kg 1× and/or bevacizumab 5 mg/kg 1×

Substance: IMGN853
- T/C [1]: 20%
- TFS [1]: 0/4
- antitumor activity rating [1]: active
- CR ([1]; responders/animals): 0/4
- T/C [2]: 36%
- antitumor activity rating [2]: active
- tumor free survivors (TFS) [2]: 0/5
- CR ([2]; responders/animals): 1/5
- antitumor activity rating [3]: active
- T/C ([3]; alone or combined): 31%
- CR ([3]; responders/animals): 0/8
- PR ([3]; responders/animals): 0/8
- tumor γH2AX levels by immunoblotting (OV-90 xenografts; 4 days post-dosing): robustly induced
- tumor microvessels, CD31 immunohistochemical staining (OV-90 xenografts; day 4): numerous large vessels
- single agent activity, previously determined (data not shown) ([4]; dose not stated): robust single agent activity
- T/C ([4]; single administration: IMGN853 2.5 mg/kg and/or carboplatin 80 mg/kg, day 39): 43%
- T/C [5]: 31%
- antitumor activity rating [5]: active
- LCK ([5]; Log10 cell kill): 0.5
- PR ([5]; responders/animals): 0/6
- T−C ([5]; tumor growth delay): 13 days
- T/C [6]: 36%
- TFS [6]: 0/6
- antitumor activity rating [6]: active
- CR ([6]; responders/animals): 0/6
- antitumor effect [7]: moderate activity
- T/C [8, 9]: 64%
- TFS [8, 9]: 0/6
- antitumor activity rating [8, 9]: inactive
- CR [8, 9]: 0/6
- PR [8, 9]: 1/6
- body weight loss ([8]; IMGN853 1.5 mg/kg monotherapy, Day 25 post-inoculation): 8%
- T/C [8, 10]: 25%
- TFS [8, 10]: 0/6
- antitumor activity rating [8, 10]: active
- CR [8, 10]: 0/6
- PR [8, 10]: 2/6
- body weight loss ([8]; IMGN853 3 mg/kg monotherapy, Day 42 post-inoculation): 9%
- γH2AX expression (γH2AX): induced γH2AX expression in IGROV-1 cells and to levels higher than those seen following carboplatin exposure alone

— US10172875B2, “Therapeutic combinations comprising anti-FOLR1 immunoconjugates” (ImmunoGen, Inc., priority 2015, dated 2019)
